Assay results published in US20150011541A1, “PIPECOLATE-SULFONAMIDES FOR TREATMENT OF PSYCHIATRIC DISORDERS” (Max-Planck-Gesellschaft zur Förderung der Wissenschaften …, priority 2011, published 2015).
Like-named read-outs stand apart in the source and are kept apart here.

Key:
[1] = biological target: T1, human FKBP51FK1 (Homo sapiens, UniProt Q13451); experiment: Fluorescence polarization assay, binding to FK1 domain of FKBP51; conditions: for inhibition at 5 µM: read-out: FKBP 51 FK1 % inhibition; for IC50: binding affinity, fluorescence polarization assay
T1 sequence (Q13451 42-130 limits assumed): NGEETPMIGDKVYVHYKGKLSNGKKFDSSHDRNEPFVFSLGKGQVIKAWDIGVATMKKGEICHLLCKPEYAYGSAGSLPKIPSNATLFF

[2] = biological target: T2, human FKBP52FK1 (Homo sapiens, UniProt Q02790); experiment: Fluorescence polarization assay, binding to FK1 domain of FKBP52; conditions: for inhibition at 5 µM: read-out: FKBP52 FK1 % inhibition; for IC50: binding affinity, fluorescence polarization assay
T2 sequence (Q02790 50-138 limits assumed): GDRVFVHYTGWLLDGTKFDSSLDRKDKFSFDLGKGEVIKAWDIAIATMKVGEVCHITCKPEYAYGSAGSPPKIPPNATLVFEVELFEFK

[3] = at a concentration of 5 μM, library testing

Molecule	inhibition at 5 µM [1, 3] [%]	inhibition at 5 µM [2, 3] [%]	IC50 [1] [µM]	IC50 [2] [µM]	other results
COc1ccc(CC[C@@H](OC(=O)[C@@H]2CCCCN2S(=O)(=O)c2ccc(-c3ccccc3)nc2)c2cccc(OCC(=O)O)c2)cc1OC [Compound 44, 2-(3-((R)-3-(3,4-dimethoxyphenyl)-1-((S)-1-(6-phenylpyridin-3-ylsulfonyl)piperidine-2-carbonyloxy)propyl)phenoxy)acetic acid]	2.6	8.5			
COc1ccc(CC[C@@H](OC(=O)[C@@H]2CCCCN2S(=O)(=O)c2cc(Cl)c(O)c(Cl)c2)c2cccc(OCCN3CCOCC3)c2)cc1OC [Compound 33, (S)-((R)-3-(3,4-dimethoxyphenyl)-1-(3-(2-morpholinoethoxy)phenyl)propyl)1-(3,5-dichloro-4-hydroxyphenylsulfonyl)piperidine-2-carboxylate]			0.456 ± 0.05	0.71 ± 0.1	
COc1ccc(CC[C@@H](OC(=O)[C@@H]2CCCCN2S(=O)(=O)c2cc(Cl)c(O)c(Cl)c2)c2cccc(OCC(=O)O)c2)cc1OC [Compound 21, 2-(3-((R)-1-((S)-1-(3,5-dichloro-4-hydroxyphenylsulfonyl)piperidine-2-carbonyloxy)-3-(3,4-dimethoxyphenyl)propyl)phenoxy)acetic acid]			15.1 ± 1.4	56.6 ± 12.2	
COc1ccc(CC[C@@H](OC(=O)[C@@H]2CCCCN2S(=O)(=O)c2cccc(F)c2)c2cccc(OCC(=O)O)c2)cc1OC [Compound 11, 2-(3-((R)-3-(3,4-dimethoxyphenyl)-1-((S)-1-(3-fluorophenylsulfonyl)piperidine-2-carbonyloxy)propyl)phenoxy)acetic acid]			18.2 ± 8.8	37.3 ± 13.6	
COc1ccc(CC[C@@H](OC(=O)[C@@H]2CCCCN2S(=O)(=O)c2cc3ccccc3o2)c2cccc(OCC(=O)O)c2)cc1OC [Compound 54, 2-(3-((R)-1-((S)-1-(benzofuran-2-ylsulfonyl)piperidine-2-carbonyloxy)-3-(3,4-dimethoxyphenyl)propyl)phenoxy)acetic acid]	5.5	6.6			
COc1ccc(CC[C@@H](OC(=O)[C@@H]2CCCCN2S(=O)(=O)c2cc(Cl)c(NC(C)=O)c(Cl)c2)c2cccc(OCCN3CCOCC3)c2)cc1OC [Compound 34, (S)-((R)-3-(3,4-dimethoxyphenyl)-1-(3-(2-morpholinoethoxy)phenyl)propyl)1-(4-acetamido-3,5-dichlorophenylsulfonyl)piperidine-2-carboxylate]			12.3 ± 18.9	8.3 ± 6.8	
COc1ccc(CC[C@@H](OC(=O)[C@@H]2CCCCN2S(=O)(=O)c2ccc3nc(C)sc3c2)c2cccc(OCC(=O)O)c2)cc1OC [Compound 27, 2-(3-((R)-3-(3,4-dimethoxyphenyl)-1-((S)-1-(2-methylbenzo[d]thiazol-6-ylsulfonyl)piperidine-2-carbonyloxy)propyl)phenoxy)acetic acid]			18.4 ± 1.4	26.5 ± 4.9	
COc1ccc(CCCOC(=O)C2CCCCN2S(=O)(=O)Cc2ccccc2)cc1OC (centres unmarked) [Ref. 3, 3-(3,4-dimethoxyphenyl)propyl 1-(benzylsulfonyl)piperidine-2-carboxylate, reference compound]			> 100	> 100	
COc1ccc(CC[C@@H](OC(=O)[C@@H]2CCCCN2S(=O)(=O)c2cc3ccccc3s2)c2cccc(OCC(=O)O)c2)cc1OC [Compound 5]	12.4	15.2	67.1 ± 12.1		
COc1ccc(CC[C@@H](OC(=O)[C@@H]2CCCCN2S(=O)(=O)c2ccc(C)cc2)c2cccc(OCC(=O)O)c2)cc1OC [Compound 63, 2-(3-((R)-3-(3,4-dimethoxyphenyl)-1-((S)-1-tosylpiperidine-2-carbonyloxy)propyl)phenoxy)acetic acid]					inhibition at 5 µM [1]: 3.2%; inhibition at 5 µM [2]: 3.8%
COc1ccc(CC[C@@H](OC(=O)[C@@H]2CCCCN2S(=O)(=O)c2ccc3[nH]c(=O)sc3c2)c2cccc(OCC(=O)O)c2)cc1OC [Compound 28, 2-(3-((R)-3-(3,4-dimethoxyphenyl)-1-((S)-1-(2-oxo-2,3-dihydrobenzo[d]thiazol-6-ylsulfonyl)piperidine-2-carbonyloxy)propyl)phenoxy)aceticacid]			14.7 ± 1.1	66.5 ± 27.1	
COc1ccc(CC[C@@H](OC(=O)[C@@H]2CCCCN2S(=O)(=O)c2ccccc2Cl)c2cccc(OCC(=O)O)c2)cc1OC [Compound 45, 2-(3-((R)-1-((S)-1-(2-chlorophenylsulfonyl)piperidine-2-carbonyloxy)-3-(3,4-dimethoxyphenyl)propyl)phenoxy)acetic acid]	1.4	9.5			
COc1ccc(CC[C@@H](OC(=O)[C@@H]2CCCCN2S(=O)(=O)c2ccc3c(c2)N(C)CCO3)c2cccc(OCC(=O)O)c2)cc1OC [Compound 51, 2-(3-((R)-3-(3,4-dimethoxyphenyl)-1-((S)-1-(4-methyl-3,4-dihydro-2H-benzo[b][1,4]oxazin-6-ylsulfonyl)piperidine-2-carbonyloxy)propyl)phenoxy)acetic acid]	9.5	6.6			
COc1ccc(CC[C@@H](OC(=O)[C@@H]2CCCCN2S(=O)(=O)c2cc(Cl)c(NC(C)=O)c(Cl)c2)c2cccc(OCC(=O)O)c2)cc1OC [Compound 23, 2-(3-((R)-1-((S)-1-(4-acetamido-3,5-dichlorophenylsulfonyl)piperidine-2-carbonyloxy)-3-(3,4-dimethoxyphenyl)propyl)phenoxy)acetic acid]			8.9 ± 0.9	15.6 ± 2.2	
O=C(OCCCc1cccnc1)C1CCCCN1S(=O)(=O)c1cccc([N+](=O)[O-])c1 (centres unmarked) [Ref. 4, 3-(pyridin-3-yl)propyl 1-(3-nitrophenylsulfonyl)piperidine-2-carboxylate, reference compound]			> 100	> 100	
COc1ccc(CC[C@@H](OC(=O)[C@@H]2CCCCN2S(=O)(=O)c2cc(Cl)cc(Cl)c2)c2cccc(OCC(=O)O)c2)cc1OC [Compound 13, 2-(3-((R)-1-((S)-1-(3,5-dichlorophenylsulfonyl)piperidine-2-carbonyloxy)-3-(3,4-dimethoxy-phenyl)propyl)phenoxy)acetic acid]			22.6 ± 8.2	14.3 ± 1.8	
COc1ccc(CC[C@@H](OC(=O)[C@@H]2CCCCN2S(=O)(=O)c2ccc(Cl)cc2)c2cccc(OCC(=O)O)c2)cc1OC [Compound 36, 2-(3-((R)-1-((S)-1-(4-chlorophenylsulfonyl)piperidine-2-carbonyloxy)-3-(3,4-dimethoxyphenyl)propyl)phenoxy)acetic acid]					inhibition at 5 µM [1]: 11.7%; inhibition at 5 µM [2]: 15.2%
COc1ccc(CC[C@@H](OC(=O)[C@@H]2CCCCN2S(=O)(=O)c2ccc(-c3ccccc3)s2)c2cccc(OCC(=O)O)c2)cc1OC [Compound 56, 2-(3-((R)-3-(3,4-dimethoxyphenyl)-1-((S)-1-(5-phenylthiophen-2-ylsulfonyl)piperidine-2-carbonyloxy)propyl)phenoxy)acetic acid]	3.2	9.5			
COc1ccc(CC[C@@H](OC(=O)[C@@H]2CCCCN2S(=O)(=O)c2ccc(Oc3ccccc3)cc2)c2cccc(OCC(=O)O)c2)cc1OC [Compound 41, 2-(3-((R)-3-(3,4-dimethoxyphenyl)-1-((S)-1-(4-phenoxyphenylsulfonyl)piperidine-2-carbonyloxy)propyl)phenoxy)acetic acid]	7.2	15.2			
COc1ccc(CC[C@@H](OC(=O)[C@@H]2CCCCN2S(=O)(=O)c2csc3ccccc23)c2cccc(OCC(=O)O)c2)cc1OC [Compound 57, 2-(3-((R)-1-((S)-1-(benzo[b]thiophen-3-ylsulfonyl)piperidine-2-carbonyloxy)-3-(3,4-dimethoxyphenyl)propyl)phenoxy)acetic acid]	3.2	4.7			
COc1ccc(CC[C@@H](OC(=O)[C@@H]2CCCCN2S(=O)(=O)c2cccc(Cl)c2)c2cccc(OCC(=O)O)c2)cc1OC [Compound 2]			30.7 ± 15.7	32.8 ± 14.5	inhibition at 5 µM [1]: 17.5%; inhibition at 5 µM [2]: 18%
COc1ccc(CC[C@@H](OC(=O)[C@@H]2CCCCN2S(=O)(=O)c2c(C)nn(-c3ccccc3)c2C)c2cccc(OCC(=O)O)c2)cc1OC [Compound 62, 2-(3-((R)-3-(3,4-dimethoxyphenyl)-1-((S)-1-(3,5-dimethyl-1-phenyl-1H-pyrazol-4-ylsulfonyl)piperidine-2-carbonyloxy)propyl)phenoxy)acetic acid]	0.9	4.7			
COc1ccc(CC[C@@H](OC(=O)[C@@H]2CCCCN2S(=O)(=O)c2cccnc2)c2cccc(OCC(=O)O)c2)cc1OC [Compound 42, 2-(3-((R)-3-(3,4-dimethoxyphenyl)-1-((S)-1-(pyridin-3-ylsulfonyl)piperidine-2-carbonyloxy)propyl)phenoxy)acetic acid]					inhibition at 5 µM [1]: 6.6%; inhibition at 5 µM [2]: 9.5%
COc1ccc(CC[C@@H](OC(=O)[C@@H]2CCCCN2S(=O)(=O)c2ccc(-c3ncccn3)cc2)c2cccc(OCC(=O)O)c2)cc1OC [Compound 1, 2-(3-((R)-3-(3,4-dimethoxyphenyl)-1-((S)-1-(4-(pyrimidin-2-yl)phenylsulfonyl)piperidine-2-carbonyloxy)propyl)phenoxy)acetic acid]	16.3	15.2	62.8 ± 10.7		
2-(3-((R)-1-((S)-1-(benzo[d]thiazol-5-ylsulfonyl)piperidine-2-carbonyloxy)-3-(3,4-dimethoxy phenyl)propyl)phenoxy)acetic acid [Compound 3]			11.6 ± 1.1	32.5 ± 3.5	FKBP 51 FK1 % inhibition [1, 3]: 25.5%; FKBP52 FK1 % inhibition [2, 3]: 16.1%
